Values joined by “and” are separate entries in the source; they are usually repeats but may differ in a detail not shown here. Identical values can stand only once. The star is where a group is joined. (C18H37)2NCOCH2OCH2CO = CCCCCCCCCCCCCCCCCCN(CCCCCCCCCCCCCCCCCC)C(=O)COCC(=O)*; OBn = c1ccc(CO*)cc1

A short description of assay [1]: Chloride release from liposomes (chloride-specific electrode). Format: biochemical. As to conditions: for chloride release / efflux from liposomes: unilamellar liposomes 182±12 nm. As to the method:
Liposomes were prepared by reverse-phase evaporation^26 as previously reported.^27 Cl^− release was determined with a resin, chloride-specific electrode. Ion transport, mediated by (C18H37)2NCOCH2OCH2CO-GGGPGGG-OCH2Ph (SEQ ID NO.: 2), was studied in unilamellar liposomes of 182±12 nm average dimension. […] Neither the anchor-GGGLGGG (SEQ ID NO.: 3) compound nor the anchor-GGG compound retains the kink believed to be present in (C18H37)2NCOCH2OCH2CO-GGGPGGG-OCH2Ph (SEQ ID NO.: 2) owing to the presence of the proline residue.
Substituting an impermeant external ion (SO4^=) for a permeant one (NO3^−) will generate a membrane potential that inhibits Cl^− release. Thus, replacing nitrate by sulfate in the aqueous medium produced a 5-fold reduction in chloride efflux (data not shown).

The test system of assay [2] is RAW 264.7 cells. The assay is described as follows: Cell volume regulation in a monocytic cell line (optical sections).
Procedure: We determined cell volume from 0.5 micron image stacks collected at 30 second intervals and calculated the time-dependent volume changes that are shown in FIG. 7B. […] RAW 264.7 cells (American Type Culture Collection, Manassas Va.) were plated into microscope chambers in Dulbeccos Minimal Essential Media with antibiotics and 10% fetal calf serum and allowed to recover over night at 5% CO2. Prior to experiment they were transferred to Hanks buffered saline (10 mM HEPES, pH 7.0) and placed into the thermostated microscope stage (37° C.) and permitted to equilibrate for 10 min. Cell volume was monitored and corrected for changes in cell geometry by optical sections at 0.5 micron steps from the glass surface to the top of the cell (typically 5–7 sections). Images were collected using a Zeiss 100 M Axovert microscope, a 12-bit Sensi-Cam, and analyzed using Slidebook 3.0 (Intelligent Imaging Innovations, Inc. Cambridge, Mass.). Cell volume was calculated by summing the intracellular surface for each image in the stack of sections. […] In FIG. 7B the cellular volume changes were followed by comparing sequential series of z-stacks from optical sections and normalized to total cell volume at the beginning of the experiment (t=0). […] Intracellular calcium was followed using Fura-2 fluorescence ratio method. […] Depolarization dependent increase in cytosolic calcium was initiated by the switch to 100 mM KCl at 200 seconds (open triangle).
Assay [3] is described as follows: Pore size from molecular models and bilayer conductance data.
A short description of assay [4]: Carboxyfluorescein fluorescence dequenching: pore activation and size, dextran block. Format: biochemical. As to the method:
Fluorescence dequenching was used to study pore activation and size as previously described in Saito et al. CF dequenching reflects the kinetics of pore activation and dequenching is accurately fit by this equation. Ft=F0+A1(1−e^−(t/τ))+mt
This exponential model requires that the concentration dependence of quenching will reflect the molecularity of pore activation (FIG. 9a, 9b). […] We infer therefore that at ˜100 μM, the active pore involves two molecules of (C18H37)2NCOCH2OCH2CO-GGG-P-GGG-OCH2Ph (SEQ ID NO.: 2). […] Size-specific dextran block (using ˜6–26 Å diameter molecules) confirmed an apparent pore diameter of 6.6 A (FIG. 9d, 9e) (M. Saito, S. J. Korsmeyer, P. H. Schlesinger, Nature Cell Biology, 553 (2000); S. Rex, G. Schwarz, Biochemistry37, 2336 (1998)).

Assay [5] in a line: Voltage clamp in planar lipid bilayers. Format: biochemical. As to conditions: for maximum conductance (chloride diffusion pathway): linear current-voltage relationship, 63 μM in b201. As to the method: The chloride selectivity of (C18H37)2NCOCH2OCH2CO-GGGPGGG-OCH2Ph (SEQ ID NO.: 2) was assessed by voltage clamp methods in planar phospholipid bilayers. Addition of (C18H37)2NCOCH2OCH2CO-GGGPGGG-OCH2Ph (SEQ ID NO.: 2) to planar bilayer lipids produced large currents within seconds in a 450:150 mM KCl ion gradient. The sign and the magnitude of this current indicated Cl^− transport by a nanoSiemen-sized channel. A linear current-voltage relationship gave a maximum conductance of 1.3±0.1 nS. The reversal potential, Erev, was 28±0.45 mV, corresponding to the calculated chloride Nernst potential, ECl, of 28.2 mV. This confirms the >10:1 Cl^−/K^+ selectivity observed in liposomes. The ion selectivity and conductivity indicate that (C18H37)2NCOCH2OCH2CO-GGGPGGG-OCH2Ph (SEQ ID NO.: 2) forms a large, stable, anion selective aqueous pore in bilayer membranes.
Planar lipid bilayers were formed by standard methods. (C18H37)2NCOCH2OCH2CO-GGGPGGG-OCH2Ph (SEQ ID NO.: 2) was applied to the cis chamber at 60 μM (micromolar) with a 450 mM/150 mM KCl gradient present across the membrane. Seconds later Cl^− currents appeared and voltage was varied from +20 to −2 mV. Fractional open time was computed using the computer programs Fetchan and pStat (Axon Instruments, CA).
The chloride selectivity of (C18H37)2NCOCH2OCH2CO-GGG-P-GGG-OCH2Ph (SEQ ID NO.: 2) was assessed by voltage clamp methods in planar lipid bilayers prepared as described in P. Schlesinger, et al., Proc. Natl. Acad. Sci. 94, 11357 (1997). The addition of 63 μM (C18H37)2NCOCH2OCH2CO-GGG-P-GGG-OCH2Ph (SEQ ID NO.: 2) produced large currents within seconds in a 450:150 mM KCl ion gradient (FIG. 8a). […] The reversal potential, Erev, was 28±0.45 mV, corresponding to the calculated chloride Nernst potential, ECl, of 28.2 mV (FIG. 8c). This confirms the >10:1 Cl^−/K^+ selectivity observed in liposomes. The ion selectivity and conductivity indicate that (C18H37)2NCOCH2OCH2CO-GGG-P-GGG-OCH2Ph (SEQ ID NO.: 2) forms a large, stable, anion selective aqueous pore in bilayer membranes.

In assay [6] the test system is RAW 264.7 cells. Briefly: Intracellular calcium, Fura-2 fluorescence ratio method. As to conditions: 46 μM or 92 μM applied at time zero.
Procedure: We determined cell volume from 0.5 micron image stacks collected at 30 second intervals and calculated the time-dependent volume changes that are shown in FIG. 7B. […] RAW 264.7 cells (American Type Culture Collection, Manassas Va.) were plated into microscope chambers in Dulbeccos Minimal Essential Media with antibiotics and 10% fetal calf serum and allowed to recover over night at 5% CO2. Prior to experiment they were transferred to Hanks buffered saline (10 mM HEPES, pH 7.0) and placed into the thermostated microscope stage (37° C.) and permitted to equilibrate for 10 min. Cell volume was monitored and corrected for changes in cell geometry by optical sections at 0.5 micron steps from the glass surface to the top of the cell (typically 5–7 sections). Images were collected using a Zeiss 100 M Axovert microscope, a 12-bit Sensi-Cam, and analyzed using Slidebook 3.0 (Intelligent Imaging Innovations, Inc. Cambridge, Mass.). Cell volume was calculated by summing the intracellular surface for each image in the stack of sections. […] In FIG. 7B the cellular volume changes were followed by comparing sequential series of z-stacks from optical sections and normalized to total cell volume at the beginning of the experiment (t=0). […] Intracellular calcium was followed using Fura-2 fluorescence ratio method. […]

For the molecule `CC(C)[C@@H]1NC(=O)[C@H](C)OC(=O)[C@@H](C(C)C)NC(=O)[C@@H](C(C)C)OC(=O)[C@H](C(C)C)NC(=O)[C@H](C)OC(=O)[C@@H](C(C)C)NC(=O)[C@@H](C(C)C)OC(=O)[C@H](C(C)C)NC(=O)[C@H](C)OC(=O)[C@@H](C(C)C)NC(=O)[C@@H](C(C)C)OC1=O` [valinomycin, reference compound], the “effect on membrane potential inhibition of net chloride movement” value in assay [1] (added to liposomes with the channel compound in sulfate medium) is listed as “permitted the remaining chloride to exit the liposomes”.

“(C18H37)2NCOCH2OCH2CO-Gly-Gly-Gly-Pro-Gly-Gly-Gly-OCH2Ph ({(C18H37)2NCOCH2OCH2CO}-GGGPGGG-OBn; SMILES CCCCCCCCCCCCCCCCCCN(CCCCCCCCCCCCCCCCCC)C(=O)COCC(=O)NCC(=O)NCC(=O)NCC(=O)N1CCC[C@H]1C(=O)NCC(=O)NCC(=O)NCC(=O)OCc1ccccc1) [(C18H37)2NCOCH2OCH2CO-GGGPGGG-OCH2Ph]”: the cell volume decrease with RAW 264.7 cells [2] (46 μM added at t=0, normalized to total cell volume at t=0) was 20% and 20±0.5%. Also, the “extent of cell volume decrease, of the initial cell volume” value in the assay on RAW 264.7 cells [2] (100 μM) is 20–25%. The “effect on cellular volume” value with RAW 264.7 cells [2] (mammalian cells) is “modulates cellular volume”. The pore size in assay [3] (molecular models, conductance data and dextran block taken together) was 6–8 Å. In addition, in assay [3] (suggested by molecular models and bilayer conductance data), the pore diameter is listed as 6.5–8 Å. In addition, the “molecules in the active pore” value in assay [4] (at ~100 μM, inferred) is “two”. For the same molecule, in assay [4] (size-specific dextran block, ~6–26 Å diameter molecules), the apparent pore diameter came to 6.6 A. The “reduction in chloride efflux on replacing nitrate by sulfate in the aqueous medium” value in assay [1] (external SO4 instead of NO3, data not shown) is given as 5 fold. In assay [1], the “chloride release / efflux from liposomes” value is “rapid, concentration dependent, and went to completion”. Further, the voltage dependent gating result in assay [5] (60 μM in cis chamber, 450 mM/150 mM KCl gradient, voltage +20 to -2 mV) was “voltage dependent gating”. Besides, the “reversal potential, Erev” value in assay [5] (450:150 mM KCl ion gradient, calculated chloride Nernst potential 28.2 mV) is 28±0.45 mV. Besides, the “maximum conductance (chloride diffusion pathway)” value in assay [5] (450:150 mM KCl ion gradient) came out at 1.3±0.1 nS; in assay [5] (450:150 mM KCl ion gradient, listed as (C18H37)2NCOCH2OCH2CO-GGG-P-GGG-OCH2Ph), 1.3±0.01 nS. For the same molecule, the “change in cytosolic calcium” value in the assay on RAW 264.7 cells [6] was “small increases”.

“(H37C18)2NCOCH2OCH2CO-Gly-Gly-Gly-Leu-Gly-Gly-Gly-OCH2Ph ({(H37C18)2NCOCH2OCH2CO}-GGGLGGG-OBn) [anchor-GGGLGGG]”: in assay [1], the “chloride release / efflux from liposomes” value is “dramatically reduced”.

Regarding “(C18H37)2NCOCH2OCH2CO-Gly-Gly-Gly-OCH2Ph [(C18H37)2NCOCH2OCH2CO-GGG-OCH2Ph]”, in assay [1] (compared with the GGGPGGG compound), the “reduction of Cl- release” value is listed as 6 fold.
